Assay results taken from article PMC5589751, “Synthesis, high-throughput screening and pharmacological characterization of β–lactam derivatives as TRPM8 antagonists” (Scientific Reports, 2017).

Legend:
TRPM8 = target: T1, TRPM8 (Rattus norvegicus, UniProt Q8R455); assay: Ca2+ microfluorography (Fluo-4 NW), menthol-induced Ca2+ signal in HEK-CR1-TRPM8 cells; assay type: cell-based; conditions: for % Block TRPM8 50 µM: 50 µM compound; for % Block TRPM8 50 µM / IC50: agonist 100 µM menthol, HEK-CR1-TRPM8 cells
T1 construct: expressed in transfected cells
T1 sequence (Q8R455 whole entry): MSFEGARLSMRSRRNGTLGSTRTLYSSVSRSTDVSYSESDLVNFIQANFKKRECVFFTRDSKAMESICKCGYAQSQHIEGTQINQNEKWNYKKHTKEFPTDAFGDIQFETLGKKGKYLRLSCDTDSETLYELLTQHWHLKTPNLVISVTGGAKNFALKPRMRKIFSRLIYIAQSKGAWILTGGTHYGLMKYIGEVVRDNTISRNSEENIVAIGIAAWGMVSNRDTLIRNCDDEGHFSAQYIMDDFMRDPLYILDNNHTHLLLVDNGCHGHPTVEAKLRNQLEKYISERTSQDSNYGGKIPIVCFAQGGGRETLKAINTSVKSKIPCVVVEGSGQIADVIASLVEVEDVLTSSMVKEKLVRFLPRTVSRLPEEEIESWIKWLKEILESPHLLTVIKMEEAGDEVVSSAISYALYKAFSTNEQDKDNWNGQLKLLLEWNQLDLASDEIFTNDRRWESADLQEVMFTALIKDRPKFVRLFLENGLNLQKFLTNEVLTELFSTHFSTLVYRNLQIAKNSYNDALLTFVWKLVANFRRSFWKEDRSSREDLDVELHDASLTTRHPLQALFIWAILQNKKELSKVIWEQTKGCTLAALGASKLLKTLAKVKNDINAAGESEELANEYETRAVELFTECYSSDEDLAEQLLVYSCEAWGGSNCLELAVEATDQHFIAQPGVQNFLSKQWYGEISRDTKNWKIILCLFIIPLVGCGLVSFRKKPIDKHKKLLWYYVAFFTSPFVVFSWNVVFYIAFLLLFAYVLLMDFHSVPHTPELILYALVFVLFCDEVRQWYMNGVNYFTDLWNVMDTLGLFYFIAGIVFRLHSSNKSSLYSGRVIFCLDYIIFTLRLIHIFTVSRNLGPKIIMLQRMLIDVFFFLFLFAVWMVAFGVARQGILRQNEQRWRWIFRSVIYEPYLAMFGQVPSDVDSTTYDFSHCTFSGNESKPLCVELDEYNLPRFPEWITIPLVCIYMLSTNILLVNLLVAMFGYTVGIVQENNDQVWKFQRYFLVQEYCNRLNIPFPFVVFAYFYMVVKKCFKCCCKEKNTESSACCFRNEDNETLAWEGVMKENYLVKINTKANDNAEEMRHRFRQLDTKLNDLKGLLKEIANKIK
Experimental: All compounds were tested at two different concentrations (50 and 5 µM) on TRPM8 and TRPV1 channels stably expressed in HEK and SH-SY5Y cell lines, respectively. The agonist induced intracellular Ca^2+ signals were measured using a fluorescent Ca^2+ indicator, in the absence and in the presence of test compounds. […] The obtained results were compared to those of 68 (AMTB, TRPM8 antagonist) and ruthenium red (TRPV1 antagonist). The IC50 values for the assay on TRPM8 were also calculated.
For fluorescence assays, cells expressing TRP channels (SH-SY5Y-TRPV1 and HEKCR1-TRPM8) were seeded in 96-well plates (Corning Incorporated, Corning, NY) at a cell density of 40,000 cells 2 days before treatment. The day of treatment the medium was replaced with 100 µL of the dye loading solution Fluo-4 NW supplemented with probenecid 2.5 mM. Then the compounds dissolved in DMSO were added at the desired concentrations and the plate(s) were incubated at 37 °C in a humidified atmosphere of 5% CO2 for 60 minutes.
The fluorescence was measured using instrument settings appropriate for excitation at 485 nm and emission at 535 nm (POLARstar Omega BMG LABtech). […] The corresponding antagonist
(10 µM Ruthenium Red forTRPV1 and 10 µM 68 for TRPM8) was added for the blockade. The changes in fluorescence intensity were recorded during 15 cycles more. […] The blocking percentage was calculated as follow (Eq. 1):1 %TRPBlockedResponse=(1−Fo−Fi/FCo−FCi)∗100 where Fo is the fluorescence after the addition of menthol in the presence of the compound, Fi is the fluorescence before the addition of menthol in the presence of the compound, FCo is the fluorescence after the addition of menthol in the absence of the compound, FCi is the fluorescence before the addition of menthol in the absence of the compound. To guarantee that our results were useful we only used assays with a Z-factor higher than 0.5.
The statistical Z-factor to determine the quality of the HTS experiment as was calculated using the equation 2:2 Z‐factor=1−3∗(SDmax+SDmin)/Meanmax−Meanmin where: Meanmax is the mean of the maximum fluorescence in the presence of agonist, SDmax is the standard deviation of the maximum fluorescence in the presence of agonists, Meanmin is the mean of the maximum fluorescence in the presence of agonist and antagonist and SDmin is the standard deviation of the maximum fluorescence in the presence of agonist and antagonist.

hTRPV1 = target: T2, hTRPV1 (Homo sapiens, UniProt Q8NER1); assay: Whole-cell patch clamp in cells expressing hTRPV1; assay type: cell-based
T2 construct: expressed in transfected cells; host or cells: HEK
T2 sequence (Q8NER1 whole entry): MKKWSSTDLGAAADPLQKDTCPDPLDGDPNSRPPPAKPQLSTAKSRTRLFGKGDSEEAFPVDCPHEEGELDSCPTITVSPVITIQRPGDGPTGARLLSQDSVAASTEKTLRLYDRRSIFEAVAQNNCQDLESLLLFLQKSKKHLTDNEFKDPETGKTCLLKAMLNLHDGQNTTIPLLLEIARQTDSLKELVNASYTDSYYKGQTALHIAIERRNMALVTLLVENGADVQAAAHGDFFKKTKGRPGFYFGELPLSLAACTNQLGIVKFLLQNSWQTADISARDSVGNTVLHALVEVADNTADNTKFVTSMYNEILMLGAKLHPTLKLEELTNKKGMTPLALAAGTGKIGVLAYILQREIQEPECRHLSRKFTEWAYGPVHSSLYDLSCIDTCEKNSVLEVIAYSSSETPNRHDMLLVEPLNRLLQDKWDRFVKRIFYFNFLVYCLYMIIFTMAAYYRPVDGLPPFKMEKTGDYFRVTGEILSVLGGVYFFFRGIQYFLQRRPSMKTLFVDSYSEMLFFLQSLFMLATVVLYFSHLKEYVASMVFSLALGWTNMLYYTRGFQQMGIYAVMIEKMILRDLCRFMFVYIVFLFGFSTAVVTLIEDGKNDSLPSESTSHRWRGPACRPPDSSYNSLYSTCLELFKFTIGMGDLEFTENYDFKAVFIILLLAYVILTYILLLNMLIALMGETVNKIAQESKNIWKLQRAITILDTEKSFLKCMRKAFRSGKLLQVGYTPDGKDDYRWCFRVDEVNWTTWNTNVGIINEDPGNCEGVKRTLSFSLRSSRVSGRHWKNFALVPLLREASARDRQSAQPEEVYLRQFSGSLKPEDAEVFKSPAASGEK
Experimental: Electrophysiological recording was carried out 1-3 d after cells seeded. Membrane currents and voltages were recorded by patch clamp using the whole-cell configuration. […] In calcium-free bath solution, CaCl2 was replaced with 5mM EGTA. For potassium and sodium recordings, CsCl was substituted by KCl and the pH was adjusted to pH 7.2 with KOH. Patch pipettes were prepared from thin-walled borosilicate glass capillaries (World Precision Instruments, Sarasota, FL, USA), pulled with a horizontal puller (P-97, Sutter Instruments, Novato, CA, USA) to have a tip resistance of 2-4 MΩ when filled with internal solutions. Data were sampled at 10 kHz (EPC10 amplifier with PatchMaster 2.53 software, HEKA Electronics, Lambrecht, Germany) and low-pass filtered at 3 kHz for analysis (PatchMaster 2.53 and GraphPad Prism 5, Graphpad Software, USA). The series resistance was <10 MΩ and to minimize voltage errors was compensated to 60-80%. All measurements were performed at 24-25°C. The temperature was adjusted with a water-cooled Peltier device placed at the inlet of the chamber and controlled by a feedback device (Automatic Temperature Controller TC-324B, Warner Instruments). Cold-sensitivity was investigated with a temperature decrease to 16-18 °C. page 44: Figure 1S. […] A) […] compound 41 (blue line). Pre-application of compound (20 s) was followed by coapplication with 500 […] 41. […] C) […] Pre-application of […] Voltage was held at -60 mV for all the experiments. […] (1 picture or pasted object on this page, not shown here)

SMILES	blocking effect against TRPM8 at 5 µM (TRPM8; 5 µM compound) [%]	% Block TRPM8 50 µM (TRPM8) [%]	IC50 (TRPM8) [µM]	IC50 (hTRPV1) [µM]	agonist activity (activation) on TRPV1 (hTRPV1; 1 µM compound, −60 mV)
CC(C)(C)OC(=O)N[C@@H](CCN1C(=O)CC1(Cc1ccccc1)C(=O)OCc1ccccc1)C(=O)OCc1ccccc1 (some centres unmarked) [Compound 41, 4R,S-Benzyl-4-benzyloxycarbonyl-1-[(3′S-benzyloxycarbonyl-3-tert-butoxycarbonylamino-3′-benzyloxycarbonyl)prop-1′-yl]-2-oxoazetidine]	95	96.3 ± 1.6	0.42	> 1	did not produce activation
CC1C(=O)N(CC[C@H](NC(=O)OC(C)(C)C)C(=O)OCc2ccccc2)C1(Cc1ccccc1)C(=O)OCc1ccccc1 (stereo partly drawn) [Compound 45, 4R,S-Benzyl-4-benzyloxycarbonyl-1-[(3′S-benzyloxycarbonyl-3′-tert-butoxycarbonylamino)prop-1′-yl]-(3R,S)-methyl-2-oxoazetidine]		100	0.8 ± 1.17	> 1	
